Results: ChEMBL document CHEMBL4261623, “Synthesis, computational studies and antiproliferative activities of coumarin-tagged 1,3,4-oxadiazole conjugates against MDA-MB-231 and MCF-7 human breast cancer cells” (Bioorg Med Chem, 2018)

Key:
MCF7 [1] = assay: Antiproliferative activity against human MCF7 cells after 24 hrs by MTT assay; type: functional, cell-based; settings: MCF7, 24 h
MDA-MB-231 [2] = assay: Antiproliferative activity against human MDA-MB-231 cells after 24 hrs by MTT assay; type: functional, cell-based; settings: MDA-MB-231, 24 h
MCF7 [3] = assay: Potency index, ratio of tamoxifen IC50 to compound IC50 for antiproliferative activity against human MCF7 cells; type: functional
MDA-MB-231 [4] = assay: Potency index, ratio of tamoxifen IC50 to compound IC50 for antiproliferative activity against human MDA-MB-231 cells; type: functional

Row | SMILES | IC50 (MCF7 [1]) | IC50 (MDA-MB-231 [2]) | Ratio IC50 (MCF7 [3]) | Ratio IC50 (MDA-MB-231 [4])
1 | CCCCSc1nnc(COc2cc(C)c3c(C)cc(=O)oc3c2)o1 | > 100 µM | > 100 µM | – | –
2 | Cc1cc(OCc2nnc(SCc3cccc(F)c3)o2)cc2oc(=O)cc(C)c12 | 26 µM | > 100 µM | – | –
3 | CCCCCCSc1nnc(COc2cc(C)c3c(C)cc(=O)oc3c2)o1 | > 100 µM | > 100 µM | – | –
4 | CC/C(=C(\c1ccccc1)c1ccc(OCCN(C)C)cc1)c1ccccc1 [TAMOXIFEN] | 7.09 µM | 47.1 µM | – | –
5 | Cc1cc(OCc2nnc(SCc3ccccc3)o2)cc2oc(=O)cc(C)c12 | > 100 µM | > 100 µM | – | –
6 | CCS(=O)(=O)c1nnc(COc2cc(C)c3c(C)cc(=O)oc3c2)o1 | > 100 µM | > 100 µM | – | –
7 | Cc1cc(OCc2nnc(SCc3ccc(Cl)cc3Cl)o2)cc2oc(=O)cc(C)c12 | < 5 µM | > 100 µM | 1.4 | –
8 | CCSc1nnc(COc2cc(C)c3c(C)cc(=O)oc3c2)o1 | > 100 µM | > 100 µM | – | –
9 | CCCCCCS(=O)(=O)c1nnc(COc2cc(C)c3c(C)cc(=O)oc3c2)o1 | > 100 µM | > 100 µM | – | –
10 | Cc1cc(OCc2nnc(SCc3ccc(F)c(F)c3)o2)cc2oc(=O)cc(C)c12 | 33.3 µM | > 100 µM | – | –
11 | Cc1cc(OCc2nnc(S(=O)(=O)Cc3ccc(F)c(F)c3)o2)cc2oc(=O)cc(C)c12 | 55.2 µM | 31.6 µM | – | –
12 | Cc1cc(OCc2nnc(S(=O)(=O)Cc3ccccc3)o2)cc2oc(=O)cc(C)c12 | 38.6 µM | 7.07 µM | – | 7
13 | CCCSc1nnc(COc2cc(C)c3c(C)cc(=O)oc3c2)o1 | > 100 µM | > 100 µM | – | –
14 | CCCCCSc1nnc(COc2cc(C)c3c(C)cc(=O)oc3c2)o1 | > 100 µM | > 100 µM | – | –
15 | CSc1nnc(COc2cc(C)c3c(C)cc(=O)oc3c2)o1 | > 100 µM | > 100 µM | – | –
16 | Cc1cc(OCc2nnc(S(=O)(=O)Cc3cccc(F)c3)o2)cc2oc(=O)cc(C)c12 | 70.4 µM | 21.3 µM | – | –
17 | CCCS(=O)(=O)c1nnc(COc2cc(C)c3c(C)cc(=O)oc3c2)o1 | > 100 µM | 7.07 µM | – | 7
